# Data from patent US20200216906A1, “METHODS AND COMPOSITIONS RELATING TO THE DIAGNOSIS AND TREATMENT OF CANCER” (PRESIDENT AND FELLOWS OF HARVARD COLLEGE, priority 2015, published 2020).
# pEC50, pIC50: −log10 of the molar value. Structures can show the parent of a compound that is named as a salt. Where two headings read alike, the source gives them in different places.
# How the values were obtained:
# [1] = system: pancreatic cancer cell lines; experiment: Kinetic cell growth assay, panel of pancreatic cancer cell lines; assay type: cell-based, human; details: for pIC50: PDAC cell lines
# Procedure, shortened: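 Pancreatic cancer cells seeded at 2-4×10^3 (low) or 15-20×10^3 (high density) per well; compounds added at several doses 24 h after plating. Confluence imaged live (Incucyte) hourly for 48-144 h or until DMSO controls reached 100% confluence.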
# [2] = Stability of gemcitabine in culture and conditioned media; assay type: in vitro ADME
# Source text: Drug availability mediated by transport or binding or export from the cell is known to be a major determinant of the sensitivity to chemotherapy (O'CONNOR, 2007). […] Furthermore, conditioned media collected from Panc02.13 cells exposed to gemcitabine after 5 days retained 96.7% activity (FIGS. 35A-[…]).
# Panc02.13 cells = experiment: Radiolabeled gemcitabine efflux; assay type: in vitro ADME, human; details: counts per μg protein; more in Hippo-ON
# Experimental: Panc02.13 cells expressing GFP or YapS6A plasmid were treated with radiolabeled gemcitabine (0.5 μM) for one hour. Cells were washed twice with PBS and incubated in fresh medium. Medium was collected over the time course of 24 hours and radioactivity was measured using scintillation counter.
# (§1) It was considered whether the Hippo pathway might affect the efflux of gemcitabine and/or its metabolites. To assess directly gemcitabine efflux in conditioned media of pancreatic cancer cells both radiolabeled gemcitabine and LC-MS/MS-based methods were used. Panc02.13 cells grown in highly crowded conditions (Hippo-ON) pumped out 2-3-fold more radiolabeled gemcitabine (counts per μg protein) compared with cells grown in less crowded conditions (Hippo-OFF) (FIG. 22A). Another pathway of inactivation and export is the enzymatic conversion of gemcitabine to a uracil derivative (2′,2′-difluorodeoxyuridine, dFdU) by deamination catalyzed by cytidine deaminase (CDA)(Veltkamp et al., 2008). The efflux of gemcitabine and its deaminated metabolite, dFdU was measured by LC-MS/MS (24) in Panc02.13 cells expressing YAPS6A or vector control after gemcitabine treatment (FIG. 22B).
# Measuring gemcitabine efflux. […] Medium was collected over the time course of 24 hours and radioactivity was measured using scintillation counter.
# [3] = system: Panc02.13 cells expressing YAPS6A; experiment: Gemcitabine and dFdU efflux by LC-MS/MS, Panc02.13 YAPS6A vs GFP; assay type: in vitro ADME, human; details: less efflux in YAPS6A (Hippo-OFF), p<0.05
# Source text: as §1
# Miapaca2-GFP xenografts = experiment: Mouse xenograft, Miapaca2-GFP; assay type: in vivo; details: i.p., alternate days for two weeks
# Experimental: (§2) To assess the gemcitabine response to Hippo pathway inactivation in tumors a mouse xenograft model of pancreatic carcinoma cells and patient-derived xenograft (PDX) models from a variety of solid tumors including human cancers from non-small cell lung, esophagus, breast, mesothelium, ovary, colon, head and neck, sarcoma, and cholangiocarcinoma were used (FIG. 30). In mouse xenograft studies, two human pancreatic cancer cell lines (Miapac2 and Panc02.13) expressing GFP or YAPS6A were injected into athymic mice. Both parental or GFP expressing cells grew rapidly, producing palpable tumors in 5-10 days. When the tumors were ˜200 mm^3 (as measured using a caliper), mice were randomized into treatment and control groups. The […] received i.p. saline injections on alternate days for two weeks, and the latter received gemcitabine (20 mg/kg in Miapaca2-YAPS6A and 50 mg/Kg in Panc02.13-YAPS6A cohorts).
# (§3) Tumorigenicity in Nude Mice. All in vivo experiments were performed using 6-week-old to 8-week-old athymic nude mice. Mice were maintained in laminar flow rooms with constant temperature and humidity. Miapaca2 or Panc02.13 cells were inoculated subcutaneously (s.c.) into each flank of the mice. […] Tumor volumes (V) were calculated using the formula: V=AB2/2 (A, axial diameter; B, rotational diameter). […]
# [4] = system: Miapaca2-YAPS6A xenografts; experiment: Mouse xenograft, Miapaca2-YAPS6A; assay type: in vivo
# Experimental: as §2
# Tumorigenicity in Nude Mice. All in vivo experiments were performed using 6-week-old to 8-week-old athymic nude mice. Mice were maintained in laminar flow rooms with constant temperature and humidity. Miapaca2 or Panc02.13 cells were inoculated subcutaneously (s.c.) into each flank of the mice. Cells (2×10^6 in suspension) were injected on day 0, and tumor growth was followed every 2 to 3 days by tumor diameter measurements using vernier calipers. Tumor volumes (V) were calculated using the formula: V=AB2/2 (A, axial diameter; B, rotational diameter). When the outgrowths were • 200 mm^3, mice were divided at random into two groups (control and treated, n=3-8). The treated group received gemcitabine injection or saline control on alternate days (MWF) for 2 weeks.
# Intra-tumor gemcitabine measurements.
# [5] = system: Panc02.13-parental xenografts; experiment: Mouse xenograft, Panc02.13-parental; assay type: in vivo; details: alternate days for two weeks
# Experimental: as §2, §3
# [6] = system: Panc02.13-YAPS6A xenografts; experiment: Mouse xenograft, Panc02.13-YAPS6A; assay type: in vivo; details: 50 mg/Kg, alternate days for two weeks
# Experimental: In mouse xenograft studies, two human pancreatic cancer cell lines (Miapac2 and Panc02.13) expressing GFP or YAPS6A were injected into athymic mice. […] When the tumors were ˜200 mm^3 (as measured using a caliper), mice were randomized into treatment and control groups. The former received i.p. saline injections on alternate days for two weeks, and the latter received gemcitabine (20 mg/kg in Miapaca2-YAPS6A and 50 mg/Kg in Panc02.13-YAPS6A cohorts).
# Tumorigenicity in Nude Mice. All in vivo experiments were performed using 6-week-old to 8-week-old athymic nude mice. Mice were maintained in laminar flow rooms with constant temperature and humidity. […] Cells (2×10^6 in suspension) were injected on day 0, and tumor growth was followed every 2 to 3 days by tumor diameter measurements using vernier calipers. Tumor volumes (V) were calculated using the formula: V=AB2/2 (A, axial diameter; B, rotational diameter). When the outgrowths were • 200 mm^3, mice were divided at random into two groups (control and treated, n=3-8). The treated group received gemcitabine injection or saline control on alternate days (MWF) for 2 weeks.
# [7] = cited from earlier work
structure (smiles),measurement,setting,value
"Nc1ccn([C@@H]2O[C@H](CO)[C@@H](O)C2(F)F)c(=O)n1 [Gemcitabine, Gemcitabine hydrochloride]",pIC50,"[1]; Homo sapiens, Pancreatic cancer cell, dense culture, read-out: IC50, resistant in dense culture",< 6.00
same,pIC50,"[1]; Homo sapiens, Pancreatic cancer cell, sparse culture, read-out: IC50, sensitive in sparse culture",> 7.00
same,pEC50,"[1]; Homo sapiens, Pancreatic cancer cell, low crowding conditions (10-25% confluence), all cell lines tested, read-out: EC50 on cell growth",> 6.70
same,Dependence of cellular response on cell crowding,"[1]; seven PDAC cell lines, threshold >100 fold difference in EC50",dependent on cell crowding
same,Density dependence of efficacy,"[1]; seven pancreatic cancer cell lines, sparse and dense conditions",density-dependent
same,Activity retained in conditioned media,[2]; conditioned media from Panc02.13 cells after 5 days,96.7%
same,Lability in culture media,[2]; culture media,not labile
same,"Radiolabeled gemcitabine pumped out, highly crowded vs less crowded",Panc02.13 cells,2-3 fold
same,"Gemcitabine effluxed, YAPS6A vs GFP expressing cells",[3],10 fold
same,Growth of xenografts,Miapaca2-GFP xenografts,no affect
same,Growth of xenografts,"[4]; 20 mg/kg, alternate days for two weeks",significantly slowed
same,Induction in apoptosis vs parental controls,[4]; cleaved caspase 7 and phosphor-H2aX,> 2 fold
same,Growth of xenografts,[5],no affect
same,Tumor volume,[6],significant regression
same,Patients without objective response to treatment,[7]; patients treated with gemcitabine,> 75%
same,Median overall survival,"[7]; standard-of-care therapy, pancreatic cancer",six
